Measured values from paper PMC8445934, “Transformation of tenofovir into stable ProTide nanocrystals with long-acting pharmacokinetic profiles” (Nature Communications, 2021).
Values joined by “and” are separate entries in the source; they are usually repeats but may differ in a detail not shown here. Equal entries are not always repeated. Where two headings read alike, the source gives them in different places.

What was measured:
[1] = tested on: human monocyte-derived macrophages (MDM); test: MTT cell viability / mitochondrial activity assay in MDM; settings: for Cell viability by MTT, normalized to untreated control cells: replicates
Description: Human monocytes were obtained, cultured, and differentiated into MDM as previously described[11],[12],[34],[62]. The cell viability after treatment with nanoparticles was evaluated using the MTT assay. […] The cells were then washed with PBS after which 100 μL of MTT solution was added to each well (5 mg/mL) for 45 min at 37 °C. The MTT solution was then replaced with 200 μL/well of DMSO. A Molecular Devices SpectraMax M3 plate reader with SoftMax Pro 6.2 software (Sunnyvale, CA) was used to record absorbance at a wavelength of 490 nm.

CEM-ss T-cells = settings: replicates
Description: Supplementary Fi gur e 9. ProTide Biological Characterizations. […]
one- way analysis of variance (ANOVA) followed by Tukey’s post hoc test was used to compare the prodrug and TFV-DP levels among three treatment groups (*P ≤ 0.05, **P < 0.01, […]
(0.0001– 1000 nM) and determined by HIV-1 reverse transcriptase (RT) activity after viral challenge with HIV -1ADA at an MOI of 0.1. Data was normalized and expressed as percentage of HIV-1 control ± SEM; N = 4.
(1 picture or pasted object on this page, not shown here)

human MDM = settings: for prodrug measurements (uptake) / prodrug measurements (retention): 10 uM; for prodrug measurements (uptake): replicates; for prodrug measurements (retention): MDM
Description: Human MDMs were used for in vitro formulation assessments. MDM formulation uptake and retention studies were performed in flat-bottom, 12-well plates at a density of 1.2 × 10^6 cells/well, with each treatment completed in triplicate. […] At 2, 4, and 8 h after treatment, the cells were collected, processed, and analyzed for drug content by UPLC-UV/vis as previously described[12],[13],[56],[63]. […] Then, a culture medium (without drug) was added, and a half-media volume was replaced every other day. MDMs were collected at days 1, 5, 10, 15, and 30 after treatment, and then analyzed for intracellular drug content by UPC-UV/vis. […] MDMs were then collected immediately after the 8 h treatment and analyzed by an FEI Tecnai G2 Spirit transmission electron microscope as previously described[11],[12],[14].
Intracellular TFV-DP was extracted from human MDM or rat PBMCs as follows. […] At 2, 4, and 8 h after treatment, MDM was washed with PBS to remove the excess free drug. The cells were then collected in 70% MS-grade MeOH. TFV-DP from MDM was extracted as follows. Sep-Pak QMA cartridges (360 mg, 37–55 μm; Waters, Milford, MA) were used to separate TFV-DP from TFV- and mono-phosphate counterparts. The QMA cartridges were conditioned with 10 ml of 500 mM KCl, followed by 10 ml of 5 mM KCl. The sample (200 μL) was loaded onto the cartridges and washed with 12 ml of 75 mM KCl. The triphosphate (TP) fraction was eluted with 3 ml of 500 mM KCl. The pH of the TP fraction was lowered to 4.25 by adding 45 μl ammonium acetate buffer (pH 4, 10 mM) per ml eluate, and dephosphorylated by adding one unit of type XA sweet potato acid phosphatase (Sigma-Aldrich) per ml eluate (3 μL per sample) and incubating at 37 °C for 45 min. […] Samples were then loaded onto Waters OASIS HLB cartridges (60 mg, 30 μm; Waters, Milford, MA) pre-conditioned with 3 ml 100% methanol followed by 3 ml 1% TFA to remove salts. Salts were removed from the dephosphorylated samples with 3.5 ml of 1% TFA in water, then eluted with 1.5 ml 100% methanol and evaporated under vacuum. Once dry, the residue was stored at −80 °C until UPLC–MS/MS analyses. Samples were reconstituted in 100 μL of 10% MeOH, 90% 7.5 mM ammonium bicarbonate pH 7 in LC-MS grade water.
TFV-DP: Parent TFV was generated from TFV-DP during sample preparation and then subjected to UPLC-MS/MS analyses. The UPLC-MS/MS system was comprised of a Waters ACQUITY UPLC system coupled to a Waters Xevo TQ-XS triple quadrupole mass spectrometer (Waters, Milford, MA) with electrospray ionization (ESI) source. A CSH C18 analytical column (2.1 × 100 mm, 1.7 µm) equipped with a guard column (Waters, Milford, MA) at 30 °C was used for analyte separation. Samples were maintained at 4 °C during analysis. […] Mobile phase A consisted of 7.5 mM ammonium bicarbonate in water (MS grade, Fisher) with pH adjusted to 7.0 with glacial acetic acid (ACS grade, Sigma). Mobile phase B was 100% methanol (MS grade, Fisher). The flow rate was 0.22 mL/min. […] B was then held at 90% for 0.4 min before returning to initial conditions. Spectra were analyzed and quantified by MassLynx software version 4.1. Quantitation was based upon drug peak area to internal standard peak area ratios.

`CC(C)OC(=O)[C@H](C)N[P@](=O)(CO[C@H](C)Cn1cnc2c(N)ncnc21)Oc1ccccc1` [TAF, tenofovir alafenamide] was tested, and the toxicity to cells ([1]; 100 μM) was “highly toxic to cells”, the “concentration above which a decrease in cell viability was observed” value ([1]; 8 h) was “above 12.5 μM” and the “Cell viability by MTT, normalized to untreated control cells” value (“Cell viability by MTT, normalized” below) ([1]; 8 h, 1.5625 uM) was 0.7334 and 0.7343 and 0.7491. For the same molecule, the “Cell viability by MTT, normalized” value ([1]; 8 h, 3.125 uM) was 0.6802 and 0.6819 and 0.7483, the “Cell viability by MTT, normalized” value ([1]; 8 h, 6.25 uM) was 0.6627 and 0.6548 and 0.6836 and 0.7177 and the “Cell viability by MTT, normalized” value ([1]; 8 h, 25 uM) was 0.6304 and 0.5666 and 0.5754 and 0.5928. The “Cell viability by MTT, normalized” value ([1]; 8 h, 50 uM) was 0.4531 and 0.3981 and 0.3597 and 0.4348, the “Cell viability by MTT, normalized” value ([1]; 8 h, 100 uM) was 0.3842 and 0.3676 and 0.4051 and 0.4296 and the “Cell viability by MTT, normalized” value ([1]; 8 h, 200 uM) was 0.3562 and 0.31 and 0.303 and 0.3222. For the same molecule, the “Prodrug measurements, CEM-ss cells” value (CEM-ss T-cells; 2 hours) was 0.09778 and 0.1063 and 0.08772, the “Prodrug measurements, CEM-ss cells” value (CEM-ss T-cells; 4 hours) was 0.113 and 0.1292 and 0.1331 and the “Prodrug measurements, CEM-ss cells” value (CEM-ss T-cells; 8 hours) was 0.2769 and 0.2544 and 0.2424. For the same molecule, the “time by which no drug was detectable in MDM” value (human MDM; 10 μM) was at most 24 h, the “prodrug measurements (uptake)” value (human MDM; 2 hours) was 2.762 and 0.9713 and 2.037 and the “prodrug measurements (uptake)” value (human MDM; 4 hours) was 0.3098. The Intracellular prodrug concentration (human MDM; 10 μM, 8 h) was 0.38 μg/10^6 cells, the “prodrug measurements (uptake)” value (human MDM; 8 hours) was 0.3813 and the “prodrug measurements (retention)” value (human MDM; day 1, replicates) was 0. The “prodrug measurements (retention)” value (human MDM; day 5, replicates) was 0, the “prodrug measurements (retention)” value (human MDM; day 10, replicates) was 0 and the “prodrug measurements (retention)” value (human MDM; day 15, replicates) was 0. For the same molecule, the “prodrug measurements (retention)” value (human MDM; day 30, replicates) was 0.
